Values of other authors as cited in patent publication US6521254B2, “Single-dose antihistamine/decongestant formulations for treating rhinitis” (J-Med Pharmaceuticals, Inc., priority 1998, dated 2003).

Columns and labels:
[1] = compared with other non-sedating and with sedating antihistamines
histamine receptors = settings: for duration of therapeutic benefit suitable for dosing interval (FDA standard, labeling): cetirizine 5 mg and 10 mg, loratidine 10 mg, fexofenadine 180 mg
[2] = 30 mg pseudoephedrine, immediate release, syrup

Row | SMILES | sedation [1] | duration of therapeutic antihistaminic benefit (histamine receptors; 5 mg cetirizine, immediate release) | duration of therapeutic benefit suitable for dosing interval (FDA standard, labeling) (histamine receptors) | duration of antihistaminic effect (histamine receptors; oral, human) | time after dosing at which antihistaminic effect is exerted (onset) (histamine receptors; oral, human, given alone / immediate release) | duration of action [2]
1 | O=C(O)COCCN1CCN(C(c2ccccc2)c2ccc(Cl)cc2)CC1 (centres unmarked) [cetirizine] | slightly more sedation than other non-sedating antihistamines | 24 h | 24 h | 24 h | one | 
2 | CCOC(=O)N1CCC(=C2c3ccc(Cl)cc3CCc3cccnc32)CC1 [loratidine] |  |  | 24 h | > 24 h |  | 
3 | CN[C@@H](C)[C@@H](O)c1ccccc1 [pseudoephedrine] |  |  |  |  |  | 4 to 6 h
